In US9416102B2, “(22E)-2-methylene-22-dehydro-1α,24,25-trihydroxy-19-nor-vitamin D3 analogs” (Wisconsin Alumni Research Foundation, priority 2013, dated 2016):

Experiments:
[1] = system: Human promyelocytic leukemia (HL-60) cells; assay: HL-60 differentiation (nitro blue tetrazolium reduction); assay type: cell-based; settings: relative to 1,25(OH)2D3; FIG. 2
Protocol: The study drugs were dissolved in ethanol and the concentrations determined using UV spectrophotometry. Serial dilutions were prepared so that a range of drug concentrations could be tested without changing the final concentration of ethanol (≦0.2%) present in the cell cultures.
Human promyelocytic leukemia (HL-60) cells were grown in RPMI-1640 medium containing 10% fetal bovine serum. The cells were incubated at 37° C. in the presence of 5% CO2.
HL-60 cells were plated at 1.2×10^5 cells/ml. Eighteen hours after plating, cells in duplicate were treated with drug. Four days later, the cells were harvested and a nitro blue tetrazolium reduction assay was performed (Collins et al., 1979; J. Exp. Med. 149:969-974). The percentage of differentiated cells was determined by counting a total of 200 cells and recording the number that contained intracellular black-blue formazan deposits. Verification of differentiation to monocytic cells was determined by measuring phagocytic activity (data not shown).

[2] = molecular target: T1, Full-length recombinant rat receptor (vitamin D receptor, VDR) (Rattus norvegicus, UniProt P13053); assay: Vitamin D receptor competitive binding; settings: relative to 1,25(OH)2D3, FIG. 1; for competition for binding to the VDR compared to the native hormone: in words
T1 construct: Full-length recombinant rat receptor was expressed in E. coli; histidine tag (C); made in house; host or cells: E. coli BL21(DE3) Codon Plus RIL
T1 sequence (P13053 1-423): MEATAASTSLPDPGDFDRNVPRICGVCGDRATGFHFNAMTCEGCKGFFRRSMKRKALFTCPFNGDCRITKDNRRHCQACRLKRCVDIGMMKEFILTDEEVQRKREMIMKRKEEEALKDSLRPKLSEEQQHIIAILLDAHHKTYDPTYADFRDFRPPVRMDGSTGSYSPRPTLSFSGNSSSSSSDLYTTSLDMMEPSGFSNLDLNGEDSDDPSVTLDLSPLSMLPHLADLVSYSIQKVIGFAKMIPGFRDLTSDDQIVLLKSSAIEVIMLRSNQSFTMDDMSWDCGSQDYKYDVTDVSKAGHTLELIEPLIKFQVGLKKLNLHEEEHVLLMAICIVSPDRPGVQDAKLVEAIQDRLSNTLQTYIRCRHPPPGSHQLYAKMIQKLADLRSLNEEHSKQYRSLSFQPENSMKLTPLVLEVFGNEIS
Text: Vitamin D Receptor Binding
Full-length recombinant rat receptor was expressed in E. coli BL21(DE3) Codon Plus RIL cells and purified to homogeneity using two different column chromatography systems. The first system was a nickel affinity resin that utilizes the C-terminal histidine tag on this protein. The protein that was eluted from this resin was further purified using ion exchange chromatography (S-Sepharose Fast Flow). Aliquots of the purified protein were quick frozen in liquid nitrogen and stored at −80° C. until use. For use in binding assays, the protein was diluted in TEDK50 (50 mM Tris, 1.5 mM EDTA, pH 7.4, 5 mM DTT, 150 mM KCl) with 0.1% Chaps detergent. The receptor protein and ligand concentration was optimized such that no more than 20% of the added radiolabeled ligand was bound to the receptor.
Unlabeled ligands were dissolved in ethanol and the concentrations determined using UV spectrophotometry (1,25(OH)2D3: molar extinction coefficient=18,200 and 1max=265 nm; Analogs: molar extinction coefficient=42,000 and 1max=252 nm). Radiolabeled ligand (^3H-1,25(OH)2D3, ˜159 Ci/mmole) was added in ethanol at a final concentration of 1 nM.
Radiolabeled and unlabeled ligands were added to 100 mcl of the diluted protein at a final ethanol concentration of ≦10%, mixed and incubated overnight on ice to reach binding equilibrium. The following day, 100 mcl of hydroxylapatite slurry (50%) was added to each tube and mixed at 10-minute intervals for 30 minutes. The hydroxyapaptite was collected by centrifugation and then washed three times with Tris-EDTA buffer (50 mM Tris, 1.5 mM EDTA, pH 7.4) containing 0.5% Titron X-100. After the final wash, the pellets were transferred to scintillation vials containing 4 ml of Biosafe II scintillation cocktail, mixed and placed in a scintillation counter. Total binding was determined from the tubes containing only radiolabeled ligand.

[3] = system: ovariectomized (OVX) Sprague-Dawley female rats; assay: Ovariectomized rat model, bone strength testing (3-point bending); assay type: in vivo; settings: 60 ng/kg body weight once daily for 17 weeks, FIG. 6
Protocol: Virgin Sprague-Dawley female rats were either sham-operated or ovariectomized (OVX) at 4 months of age by the vendor (Harlan). Starting at 16 weeks post-surgery, the animals were given vehicle or test analog (WT or 2MD) once daily for 17 weeks. Bone mineral density (BMD) and serum and urinary calcium levels were assessed periodically throughout the study. At termination, femurs were collected for bone strength testing (3-point bending, Numira Biosciences).

[4] = system: 24-hydroxylase (24OHase) gene promoter; assay: In vitro transcription assay (luciferase reporter in ROS 17/2.8 cells); assay type: cell-based; settings: FIG. 3; for stimulation of gene transcription compared to the native hormone: in words
Protocol: In Vitro Transcription Assay
Transcription activity was measured in ROS 17/2.8 (bone) cells that were stably transfected with a 24-hydroxylase (24OHase) gene promoter upstream of a luciferase reporter gene (Arbour et al., 1998). Cells were given a range of doses. Sixteen hours after dosing the cells were harvested and luciferase activities were measured using a luminometer. RLU=relative luciferase units.

SMILES	promoting HL-60 cell differentiation, times more potent than the native hormone [1]	competition for binding to the VDR compared to the native hormone [2]	binding to the vitamin D receptor (VDR), times less active than the natural hormone [2]	bone strength compared to 2MD at 2.5 ng/kg body weight [3]	stimulation of gene transcription compared to the native hormone [4]	stimulating gene transcription from the 24OHase gene promoter, times more effective than the natural hormone ([4]; relative to 1,25(OH)2D3)
C=C1[C@H](O)CC(=C/C=C2\CCC[C@]3(C)[C@@H]([C@H](C)/C=C/[C@@H](O)C(C)(C)O)CC[C@@H]23)C[C@H]1O [WT-51, (22E)-(24R)-2-methylene-22-dehydro-1α,24,25-trihydroxy-19-nor-vitamin D3]	approximately 10 ×	one log less than the native hormone	approximately 10 ×	improves bone strength in ovariectomized rats to the same degree as 2MD	nearly one log more potent than the native hormone	approximately 10 ×
C=C1[C@H](O)CC(=C/C=C2\CCC[C@]3(C)[C@@H]([C@H](C)/C=C/[C@H](O)C(C)(C)O)CC[C@@H]23)C[C@H]1O [WT-52, (22E)-(24S)-2-methylene-22-dehydro-1α,24,25-trihydroxy-19-nor-vitamin D3]	–	one log less than the native hormone	approximately 10 ×	–	approximately the same activity as the native hormone	–
